Legend:
melan-a cells = assay: Melanin assay in cultured murine melanocytes (melan-a); format: cell-based; details: 72 hours; for % of control remaining @ 1 μM / % of control remaining @ 5 μM: melanin, melan-a cells
Experimental: The Spectrum Collection library consisting of 2000 drug compounds or natural products was screened to identify novel pigmentation inhibitors or stimulators in cultured murine melanocytes (melan-a). Compounds were dissolved in dimethylsulfoxide (DMSO) to a final concentration of 10 mM. Screening was performed with cultured melanocytes in 24-well plates followed by melanin assay (see below). A minimum change of 50% in melanin formation was established as significant for a pigmentation inhibitor or stimulator. DMSO was used as a negative control and the widely used depigmenting agent, hydroquinone, was used as a positive control on every plate. […] Melan-a cells were plated at 5×10^4 cells per well in 1 ml of culture media in 24-well plates the day before adding the library compounds. All compounds were added at the indicated final concentrations. Cells were harvested after 72 hours of incubation, and melanin assay was performed. For the primary and secondary screening, cells were harvested and dissolved in 200 μl of 2N NaOH in 20% DMSO at 70° C. A 180-μl aliquot of the resulting solution was measured for absorbance at 490 nm. Cells are harvested in extraction buffer (1% Triton X-100, 50 mM Tris, 2 mM EDTA, 150 mM NaCl, pH 7.5) containing a complete protease inhibitor cocktail (Roche). The lysates were centrifuged at 14,000 rpm for 10 minutes at 4° C. BCA protein assay kit (Pierce) was used to measure the protein concentrations of the supernatants, and bovine serum albumin was used as a standard. […] A 180-μl aliquot of the resulting solution was measured for absorbance at 490 nm. The melanin contents were normalized to the total amount of protein. The IC50 value for inhibition of cellular melanin synthesis for conessine was determined by culturing melan-a cells with various concentrations of conessine for 72 hours. Briefly, melan-a cells were plated at 5×10^4 cells per well in 1 ml of culture media in 24-well plates the day before adding conessine. Conessine was added at the indicated final concentrations. DMSO was used as a negative control. Cells were harvested after 72 hours of incubation, and spectrophotometric melanin assay was performed on cell pellets. The melanin contents were normalized to the total amount of protein. Cell viability was determined by using the CellTiter 96 aqueous nonradioactive cell proliferation assay. […] Licorice extract was tested under similar conditions as conessine for its ability to decrease melanin synthesis in melan-a cells (FIG. 11c). Melan-a cells were plated at 5×10^4 cells per well in 1 ml of culture media in 24-well plates the day before adding Licorice extract. 70% ethanol was used as control and the Licorice extract was diluted in cell culture media at the indicated concentrations. […] Cells were harvested after 72 hours of incubation, and spectrophotometric melanin assay was performed on cell pellets. The melanin contents were normalized to the total amount of protein. Cell viability was determined by using the CellTiter 96 aqueous nonradioactive cell proliferation assay.

UV-induced pigmentation = details: topical application of 0.5%; cited from earlier work

SMILES | % of control remaining @ 1 μM (melan-a cells) | % of control remaining @ 5 μM (melan-a cells) | inhibition of UV-induced pigmentation (UV-induced pigmentation) | effect on melanin synthesis in melan-a cells (melan-a cells; indicated concentrations)
CC1C2CCC3C4CC=C5CC(N(C)C)CCC5(C)C4CCC32CN1C (stereo not drawn) [Compound 3, N,N-Dimethylcon-5-enin-3-amine] | 59.2 % of control | 28.4 % of control |  | 
CC1(C)C=Cc2c(ccc3c2OC[C@@H](c2ccc(O)cc2O)C3)O1 [glabridin] |  |  | can inhibit the UV-induced pigmentation | 
Oc1ccc(O)cc1 [hydroquinone, reference compound] |  |  |  | significantly inhibited melanogenesis in a dose-dependent manner
C[C@H]1C2CCC3[C@@H]4CC=C5C[C@@H](N(C)C)CC[C@]5(C)C4CC[C@@]32CN1C (mixture of isomers) [Compound 2, Con-5-enine, 3β-(dimethylamino)-, (±)-(8Cl) (Registry No: 14546-12-4)] | 78.4 % of control | 38.5 % of control |  | 

— patent US20100040568A1, “Steroidal compounds as melanogenesis modifiers and uses thereof” (SkinMedica, Inc., priority 2008, published 2010)
